Test results as given in patent publication US6656729B2, “Compositions which inhibit apoptosis, methods of purifying the compositions and uses thereof” (Sky High, LLC, priority 1993, dated 2003).

System: C3H 10T1/2 cells
Test: Apoptosis assay with C3H 10T1/2 cells (serum deprivation)
Assay type: cell-based
Conditions: for ACTIVITY (anti-apoptotic activity of known phospholipids): serum-deprived 10T½ cells, dissolved at 10 mM (100× test concentration), pre-incubation in 1% BSA, final BSA ≦0.01%
Procedure: In order to determine the apoptotic activity of the PAIs, the following experiment was performed. […] Exponential growth phase was assured by seeding at 2000 cells per 1 ml (5 ml for a 60 mm culture plate) five days prior to the beginning of the experiment. At T=0, cultures were transferred to serum-free medium, as an apoptosis stimulus, and seed extracts were added. Controls included 10^−7 M 12-O-tetradecanoyl phorbol-13-acetate (TPA) to ensure the responsiveness of the cell culture. The PAI samples prepared by extraction with ethanol and by gel filtration were added to serum free medium at 0.1 g dry weight equivalents and sterile filtered prior to addition to the cultures. Assays were performed in triplicate or quadruplicate. Analyses of the cell responses were made after between 22 and 28 hours of serum deprivation and/or treatment with soy flour derived PAIs. Two assays were performed on each cell culture plate consisting of differential cell counts.
1. All non-adherent or loosely adherent cells were removed from the culture dish and counted by appropriate techniques, typically counting by electric particle counting instrument. These are the apoptotic cells, the serum deprived released cells (SDR), released by the action of cultivation in serum-free medium.
2. The remaining adherent cells (ADH) are exposed to a buffered, typically pH 7.3, balanced salt solution such as Hanks Balanced Salt Solution without calcium and magnesium salts containing 0.05% trypsin and 0.53 mM ethylenediaminetetraacetic acid (EDTA). Each culture is incubated at either room temperature or 37° C. on a rocking platform to ensure uniform distribution of the trypsin reagent over the culture surface. After a standardized period of time, typically 10 minutes, the released cells are removed from each culture dish and measured by the same means as described above, typically electronic particle counting.
All commercial samples were dissolved at a concentration of 10 mM (100× test concentration) in 1% bovine serum albumin (BSA), 0.5 mM calcium chloride, 0.5 mM magnesium chloride, at room temperature. All compounds were tested after pre-incubation in 1% BSA. The final concentration of BSA in the apoptosis was ≦0.01%. […] All tested compounds were obtained from Sigma. The BSA was obtained from Boehringer Mannheim.

Row | Molecule | ACTIVITY (anti-apoptotic activity of known phospholipids) | also measured
1 | L-a-lysophosphatidyl ethanolamine | 0 | 
2 | L-a-phosphatidyl inositol | 0 | 
3 | CCCCCCCC/C=C\CCCCCCCC(=O)OC[C@@H](O)COP(=O)(O)O (stereo in doubt) [L-a-lysophosphatidic acid, oleoyl (C18:1, [cis]-9)] | ++ | Anti-apoptotic activity (in words) (in the presence of Bowman-Birk inhibitors): does not confer anti-apoptotic activity; Anti-apoptotic activity (in words) (in the presence of a protein or proteins to which it specifically binds (serum albumin)): possess anti-apoptotic activity; Anti-apoptotic activity (in words) (in the presence of fraction B): possessed anti-apoptotic activity; Effect of pre-incubation on anti-apoptotic activity (pre-incubation with BSA (FIG. 14)): enhanced; Effect of pre-incubation on anti-apoptotic activity (pre-incubation with fraction B (FIG. 14)): enhanced; Anti-apoptotic activity (in words) (substance or fraction alone): no anti-apoptotic activity
4 | CCCCCCCC/C=C\CCCCCCCC(=O)OC[C@H](COP(=O)(O)O)OC(=O)CCCCCCC/C=C\CCCCCCCC (stereo in doubt) [L-a-phosphatidic acid, dioleoyl (C18:1, [cis]-9)] | 0 | 
5 | L-a-phosphatidyl choline [L-a-phosphatidyl choline Type V-EA] | 0 | 
6 | L-a-phosphatidyl ethanolamine [L-a-phosphatidyl ethanolamine, Type IV] | 0 | 
